Consider eleven compounds from publication PMC9917406, “Synthesis, Biological and In Silico Studies of Griseofulvin and Usnic Acid Sulfonamide Derivatives as Fungal, Bacterial and Human Carbonic Anhydrase Inhibitors” (International Journal of Molecular Sciences, 2023).

Where two headings read alike, the source gives them in different places.

Common to all, as to type: biochemical
Assay [1] has as its target hCA II (Homo sapiens, UniProt P00918). In words: stopped-flow CO2 hydrase assay, hCA II. Conditions: for Ki: mean from 3 different assays, errors ±5–10%.
Assay [2] deals with T1, PgiCAγ (Porphyromonas gingivalis, UniProt Q7MV79).
T1 sequence (Q7MV79 1-192): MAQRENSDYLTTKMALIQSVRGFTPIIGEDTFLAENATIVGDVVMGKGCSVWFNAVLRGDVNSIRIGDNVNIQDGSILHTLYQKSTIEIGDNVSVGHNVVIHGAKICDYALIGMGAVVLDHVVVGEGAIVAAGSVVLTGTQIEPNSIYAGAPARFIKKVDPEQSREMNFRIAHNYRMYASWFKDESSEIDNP
In words: stopped-flow CO2 hydrase assay, PgiCAγ. To be noted: for Ki: mean from 3 different assays, errors ±5–10%.

Assay [3] has as its target T2, PgiCAβ (Porphyromonas gingivalis, UniProt B2RL07).
T2 sequence (B2RL07 19-242): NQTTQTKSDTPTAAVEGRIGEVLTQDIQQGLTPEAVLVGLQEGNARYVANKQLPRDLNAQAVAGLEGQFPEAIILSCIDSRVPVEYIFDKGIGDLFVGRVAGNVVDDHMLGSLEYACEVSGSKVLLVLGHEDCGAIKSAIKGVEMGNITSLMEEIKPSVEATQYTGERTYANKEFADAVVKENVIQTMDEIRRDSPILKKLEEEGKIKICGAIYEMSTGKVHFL
Briefly: stopped-flow CO2 hydrase assay, PgiCAβ. To be noted: mean from 3 different assays, errors ±5–10%.

Assay [4] concerns the target CpsCAγ (Colwellia psychrerythraea, UniProt Q48AV3). In words: biochemical.
Assay [5] deals with hCA IX (Homo sapiens, UniProt Q16790). In words: stopped-flow CO2 hydrase assay, hCA IX. Conditions: mean from 3 different assays, errors ±5–10%; read-out: KI hCAIX.
For assay [6], the target named is hCA I (Homo sapiens, UniProt P00915). In words: stopped-flow CO2 hydrase assay, hCA I. To be noted: mean from 3 different assays, errors ±5–10%.
Sequence of hCA I (P00915 whole entry): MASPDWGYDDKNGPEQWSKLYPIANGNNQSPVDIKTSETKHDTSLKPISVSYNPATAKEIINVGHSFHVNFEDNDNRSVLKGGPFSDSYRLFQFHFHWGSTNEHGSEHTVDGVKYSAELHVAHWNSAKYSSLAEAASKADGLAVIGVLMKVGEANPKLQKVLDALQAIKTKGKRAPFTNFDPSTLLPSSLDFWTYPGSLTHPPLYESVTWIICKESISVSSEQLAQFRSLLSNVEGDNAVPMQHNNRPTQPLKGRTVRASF
The target of assay [7] is BpsCAγ (Burkholderia pseudomallei, UniProt Q63SQ4). Conditions: read-out: KI BpsCAγ.
Sequence of BpsCAγ (Q63SQ4 1-174): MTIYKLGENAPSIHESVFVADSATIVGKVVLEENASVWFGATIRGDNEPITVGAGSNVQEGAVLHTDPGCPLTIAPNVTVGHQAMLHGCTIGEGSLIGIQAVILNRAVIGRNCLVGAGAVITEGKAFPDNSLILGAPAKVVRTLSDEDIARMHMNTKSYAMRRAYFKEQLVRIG
Assay [8] addresses T3, SmuCA (Streptococcus mutans, UniProt Q8DVY1).
T3 sequence (Q8DVY1 1-166): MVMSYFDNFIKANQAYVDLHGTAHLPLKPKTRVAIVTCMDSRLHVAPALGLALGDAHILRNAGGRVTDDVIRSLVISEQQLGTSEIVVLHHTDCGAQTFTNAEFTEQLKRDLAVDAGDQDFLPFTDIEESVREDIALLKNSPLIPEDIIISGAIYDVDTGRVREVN
Briefly: stopped-flow CO2 hydrase assay, SmuCA. Conditions: for Ki: mean from 3 different assays, errors ±5–10%.

Assay [9] deals with T4, MgCA (Malassezia globosa, UniProt A8Q1N3).
T4 sequence (A8Q1N3 1-241): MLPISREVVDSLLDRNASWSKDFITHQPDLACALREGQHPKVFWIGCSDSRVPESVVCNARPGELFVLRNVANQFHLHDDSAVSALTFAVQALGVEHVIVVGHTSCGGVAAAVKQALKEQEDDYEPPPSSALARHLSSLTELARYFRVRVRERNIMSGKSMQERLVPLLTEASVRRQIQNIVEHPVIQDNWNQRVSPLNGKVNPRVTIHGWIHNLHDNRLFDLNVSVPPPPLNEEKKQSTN
Briefly: stopped-flow CO2 hydrase assay, MgCA. To be noted: mean from 3 different assays, errors ±5–10%.

[10] abbreviates: mean from 3 different assays, errors ±5–10%, read-out: KI CpsCAγ.

Sequence of CpsCAγ (Q48AV3 entry or part of it): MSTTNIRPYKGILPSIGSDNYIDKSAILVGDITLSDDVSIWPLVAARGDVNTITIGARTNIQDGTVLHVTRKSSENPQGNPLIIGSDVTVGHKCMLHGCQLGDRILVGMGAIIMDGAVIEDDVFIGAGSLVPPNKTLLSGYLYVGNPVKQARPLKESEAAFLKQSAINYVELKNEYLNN

What is called Ki is a dissociation constant, usually derived from enzyme kinetics or from competition with a known ligand. On to `COc1cc(OC)c2c(c1Cl)OC1(C(=O)C=C(NCCS(N)(=O)=O)CC1C)C2=O` [Compound 1a, 2-(((2S,6′R)-7-chloro-4,6-dimethoxy-6′-methyl-2′,3-dioxo-3H-spiro[benzofuran-2,1′-cyclohexan]-3′-en-4′-yl)amino)ethane-1-sulfonamide], for which the Ki in assay [1] was 653 nM; in [2], 92.1 nM; in assay [3] it was 779 nM; in [4], 3150 nM; in [5], 31.2 nM; in assay [6], 562 nM. The Ki in [7] worked out at 448 nM; in assay [8], 1630 nM; in assay [9] it was 544 nM. Moreover, the “SI towards PgiCAβ” value in assay [2] (PgiCAγ inhibition relative to PgiCAβ) worked out at 8.5. Besides, the “fold more active than acetazolamide” value in assay [2] (against PgiCAγ) is given as 3.5 fold.
With `COc1cc(OC)c2c(c1Cl)OC1(C(=O)C=C(Nc3ccc(S(N)(=O)=O)cc3)CC1C)C2=O` [Compound 1b, 4-(((2S,6′R)-7-chloro-4,6-dimethoxy-6′-methyl-2′,3-dioxo-3H-spiro[benzofuran-2,1′-cyclohexan]-3′-en-4′-yl)amino)benzenesulfonamide], the Ki was 64.4 nM in [1]; 820 nM in assay [2]; 819 nM in assay [3]; 939 nM in assay [4]; 203 nM in assay [5]; 234 nM in [6]. Further, the Ki came out at 945 nM in assay [7], 294 nM in [8] and 476 nM in assay [9]. Moreover, the “SI towards all other bacterial strains” value in assay [8] (S. mutans CA inhibition relative to other bacterial CAs) is 3.
Consider `COc1cc(OC)c2c(c1Cl)OC1(C(=O)C=C(NCc3ccc(S(N)(=O)=O)cc3)CC1C)C2=O` [Compound 1c, 4-((((2S,6′R)-7-chloro-4,6-dimethoxy-6′-methyl-2′,3-dioxo-3H-spiro[benzofuran-2,1′-cyclohexan]-3′-en-4′-yl)amino)methyl)benzenesulfonamide], for which the Ki was 29.1 nM in [1]; 661 nM in assay [2]; 896 nM in assay [3]; 900 nM in [4]; 102 nM in [5]; 74.6 nM in assay [6]. Besides, the inhibition constant (Ki) worked out at 833 nM in assay [7], 4000 nM in assay [8] and 568 nM in assay [9].
Take `COc1cc(OC)c2c(c1Cl)OC1(C(=O)C=C(Nc3ccc(S(N)(=O)=O)cc3O)CC1C)C2=O` [Compound 1d, 4-(((2S,6′R)-7-chloro-4,6-dimethoxy-6′-methyl-2′,3-dioxo-3H-spiro[benzofuran-2,1′-cyclohexan]-3′-en-4′-yl)amino)-3-hydroxybenzenesulfonamide]: the “selectivity index (SI) towards hCA I” value in [1] (hCA II inhibition relative to hCA I) came out at 5.88. For the same compound, in assay [1] (hCA II inhibition relative to hCA IX), the “selectivity index (SI) towards hCA IX” value was determined as 6.00. In addition, the Ki in assay [1] is 4.9 nM; in assay [2], 584 nM; in assay [3], 1280 nM; in [4], 591 nM; in assay [5], 29.4 nM; in assay [6] it was 28.8 nM. In addition, the figures for the Ki in assay [7], in assay [8] and in assay [9] were 878 nM, 897 nM and 1590 nM, respectively.
Consider `COc1cc(OC)c2c(c1Cl)O[C@@]1(C(=O)/C(=C\NCc3ccc(S(N)(=O)=O)cc3)C(=O)C[C@H]1C)C2=O` [Compound 1e], for which the Ki in assay [1] worked out at 165 nM; in assay [2], 1270 nM; in assay [3], 940 nM; in assay [4] it was 220 nM; in assay [5], 29.2 nM; in assay [6] it was 320 nM. Moreover, the Ki was determined as 1060 nM in assay [7], 1640 nM in assay [8] and 1830 nM in assay [9].
On to `COc1cc(OC)c2c(c1Cl)O[C@@]1(C(=O)C(=CNCCc3ccc(S(N)(=O)=O)cc3)C(=O)C[C@H]1C)C2=O` [Compound 1f, 4-(2-((((2R,2′R)-7-chloro-4,6-dimethoxy-2′-methyl-3,4′,6′-trioxo-3H-spiro[benzofuran-2,1′-cyclohexan]-5′-ylidene)methyl)amino)ethyl)benzenesulfonamide], for which the Ki in assay [1] is 70.8 nM; in assay [2], 602 nM; in assay [3], 8360 nM; in [4] it was 726 nM; in assay [5] it was 30.6 nM; in assay [6], 348 nM. Also, the Ki is 2280 nM in assay [7], 2470 nM in assay [8] and 4000 nM in assay [9].
With `COc1cc(C(CC(=O)NCCS(N)(=O)=O)C2C(=O)C[C@@H](C)[C@]3(Oc4c(Cl)c(OC)cc(OC)c4C3=O)C2=O)ccc1O` (stereo partly shown) [Compound 1g], the Ki in [1] is 4050 nM; in assay [2] it was 2220 nM; in assay [3] it was 5590 nM; in assay [4] (setting [10]) it was 301 nM; in assay [5], 710 nM; in [6], 2990 nM. Besides, the Ki in assay [7] is 2330 nM; in assay [8], 1220 nM; in [9], 3150 nM.
Regarding `COc1cc(OC)c2c(c1Cl)O[C@]1(C2=O)C(=O)C(C(CC(=O)NCc2ccc(S(N)(=O)=O)cc2)c2ccc(SC)cc2)C(=O)C[C@H]1C` (stereo partly shown) [Compound 1h], the Ki came out at 7.5 nM in [1]; 853 nM in assay [2]; 5750 nM in [3]; 625 nM in [4] (setting [10]); 73.7 nM in [5]; 41.1 nM in [6]. Besides, the results for the Ki in [7], in assay [8] and in assay [9] were 1400 nM, 580 nM and 4350 nM, respectively.
For the compound `COc1cc(OC)c2c(c1Cl)O[C@]1(C2=O)C(=O)C(C(CC(=O)NCCc2ccc(S(N)(=O)=O)cc2)c2ccc(SC)cc2)C(=O)C[C@H]1C` (stereo partly drawn) [Compound 1i, 3-((2S,2′R)-7-chloro-4,6-dimethoxy-2′-methyl-3,4′,6′-trioxo-3H-spiro[benzofuran-2,1′-cyclohexan]-5′-yl)-3-(4-(methylthio)phenyl)-N-(4-sulfamoylphenethyl)propenamide], the Ki in [1] turned out to be 8.1 nM; in assay [2], 854 nM; in assay [3] it was 506 nM; in assay [4] (setting [10]), 804 nM; in assay [5], 23.3 nM; in assay [6], 15.3 nM. Further, the Ki was found to be 1040 nM in assay [7], 889 nM in assay [8] and 1910 nM in assay [9].
On to `COc1cc(OC)c2c(c1Cl)O[C@]1(C2=O)C(=O)C(C(CC(=O)NCC(=O)Nc2ccc(S(N)(=O)=O)cc2)c2ccc(SC)cc2)C(=O)C[C@H]1C` (stereo partly drawn) [Compound 1j, 3-((2S,2′R)-7-chloro-4,6-dimethoxy-2′-methyl-3,4′,6′-trioxo-3H-spiro[benzofuran-2,1′-cyclohexan]-5′-yl)-3-(4-(methylthio)phenyl)-N-(2-oxo-2-((4-sulfamoylphenyl)amino)ethyl)propenamide], for which the Ki turned out to be 5.7 nM in assay [1]; 2320 nM in [2]; 3000 nM in assay [3]; 177 nM in assay [4] (setting [10]); 22.5 nM in [5]; 27.7 nM in [6]. The Ki in assay [7] stood at 710 nM; in assay [8] it was 1230 nM; in assay [9], 2050 nM. In addition, the “SI towards BpsCAγ” value in assay [4] (CpsCAγ inhibition relative to BpsCAγ) was determined as 4. In addition, in assay [4] (CpsCAγ inhibition relative to PgiCAγ), the “SI towards PgiCAγ” value amounted to 13. The “SI towards S. mutans” value in assay [4] (CpsCAγ inhibition relative to S. mutans CA) worked out at 6.9.
In the case of `CC(=O)c1c(O)c(C)c(O)c2c1OC1=CC(=O)C(=C(C)Nc3cc(S(N)(=O)=O)ccc3O)C(=O)[C@@]12C` [Compound 4b, (R)-3-((1-(6-acetyl-7,9-dihydroxy-8,9b-dimethyl-1,3-dioxo-3,9b-dihydrodibenzo[b,d]furan-2(1H)-ylidene)ethyl)amino)-4-hydroxybenzenesulfonamide], the Ki was 755 nM in assay [1]; 1840 nM in [2]; 766 nM in assay [3]; 809 nM in assay [4]; 305 nM in [5]; 1000 nM in [7]. Moreover, the Ki in assay [8] is 1700 nM; in assay [9] it was 2500 nM.
